Laboratory results from patent US10703756B2, “Pyrrolo[2,3-D]pyrimidinyl, pyrrolo[2,3-B]pyrazinyl, pyrrolo[2,3-B]pyridinyl acrylamides and epoxides thereof” (Pfizer Inc., priority 2015, dated 2020).

Columns and labels:
[1] = target: T1, JAK3 enzyme (Homo sapiens, UniProt P52333); assay: JAK Caliper Enzyme Assay at 4 μM ATP; type: biochemical
T1 sequence (P52333 1-1124): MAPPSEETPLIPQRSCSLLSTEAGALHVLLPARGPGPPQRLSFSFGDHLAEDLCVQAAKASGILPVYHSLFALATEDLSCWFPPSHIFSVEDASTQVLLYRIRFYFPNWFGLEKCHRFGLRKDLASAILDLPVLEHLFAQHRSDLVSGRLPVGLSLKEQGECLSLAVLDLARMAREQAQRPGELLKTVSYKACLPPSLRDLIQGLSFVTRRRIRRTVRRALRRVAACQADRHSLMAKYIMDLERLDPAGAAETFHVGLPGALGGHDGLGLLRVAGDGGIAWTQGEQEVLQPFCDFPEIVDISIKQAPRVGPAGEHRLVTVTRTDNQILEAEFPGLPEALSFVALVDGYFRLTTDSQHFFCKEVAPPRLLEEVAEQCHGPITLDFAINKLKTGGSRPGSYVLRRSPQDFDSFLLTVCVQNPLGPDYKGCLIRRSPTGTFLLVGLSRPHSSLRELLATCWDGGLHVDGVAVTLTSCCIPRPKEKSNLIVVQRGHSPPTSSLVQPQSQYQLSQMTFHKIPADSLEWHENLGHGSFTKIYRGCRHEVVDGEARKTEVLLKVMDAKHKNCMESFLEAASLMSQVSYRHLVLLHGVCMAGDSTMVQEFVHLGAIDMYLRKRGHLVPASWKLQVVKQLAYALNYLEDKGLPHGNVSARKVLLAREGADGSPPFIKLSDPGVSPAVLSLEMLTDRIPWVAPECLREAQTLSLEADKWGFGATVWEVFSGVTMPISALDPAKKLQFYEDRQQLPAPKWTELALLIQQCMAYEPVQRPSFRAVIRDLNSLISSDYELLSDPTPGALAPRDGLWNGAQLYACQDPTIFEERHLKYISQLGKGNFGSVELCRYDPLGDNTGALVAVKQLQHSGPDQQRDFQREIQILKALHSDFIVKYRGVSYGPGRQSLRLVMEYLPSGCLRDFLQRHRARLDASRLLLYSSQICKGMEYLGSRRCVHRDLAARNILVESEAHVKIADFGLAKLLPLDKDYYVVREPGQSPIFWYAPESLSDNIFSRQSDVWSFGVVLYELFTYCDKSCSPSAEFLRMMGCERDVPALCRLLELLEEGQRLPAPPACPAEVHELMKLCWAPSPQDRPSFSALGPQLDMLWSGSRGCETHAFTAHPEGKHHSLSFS
Protocol: (§1) Test article was solubilized in dimethyl sulfoxide (DMSO) to a stock concentration of 30 mM. An 11-point half log dilution series was created in DMSO with a top concentration of 600 μM. […] Test article and assay controls were added to a 384-well plate. […] Enzyme concentrations and incubation times were optimized for each new enzyme preps and were modified slightly over time to ensure 20%-30% phosphorylation. […] The assay plates were placed on a Caliper Life Science Lab Chip 3000 (LC3000) instrument, and each well was sampled using appropriate separation conditions to measure the unphosphorylated and phosphorylated peptide.

[2] = target: T1, JAK3 enzyme; assay: JAK Caliper Enzyme Assay at 1 mM ATP; type: biochemical
Protocol: as §1

Structure (SMILES) | IC50 [1] | IC50 [2]
C=CC(=O)N1CCC(N(C)c2cnc3[nH]cc(C(=O)NCC)c3n2)C1 (racemic) [Example 28, Racemic-2-[(1-acryloylpyrrolidin-3-yl)(methyl)amino]-N-ethyl-5H-pyrrolo[2,3-b]pyrazine-7-carboxamide] | 13.7 nM | 1160 nM
C=CC(=O)N1CCC(Oc2cnc3[nH]cc(C(C)O)c3n2)CC1 (racemic) [Example 117] | 11.9 nM | 1490 nM
C=CC(=O)N1CCN(c2cnc3[nH]cc(C(=O)NC(CO)CCCC)c3n2)CC1(C)C (racemic) [Example 155, Racemic-2-(4-acryloyl-3,3-dimethylpiperazin-1-yl)-N-(1-hydroxyhexan-2-yl)-5H-pyrrolo[2,3-b]pyrazine-7-carboxamide] | 4.92 nM | 721 nM
C=CC(=O)N1CCN(c2cnc3[nH]cc(C(=O)NC4CCOC4)c3n2)CC1(C)C (racemic) [Example 164, Racemic-2-(4-acryloyl-3,3-dimethylpiperazin-1-yl)-N-(tetrahydrofuran-3-yl)-5H-pyrrolo[2,3-b]pyrazine-7-carboxamide] | 4.34 nM | 726 nM
C=CC(=O)N1CCN(c2cnc3[nH]cc(C(=O)NC(CO)c4ccc(F)cc4)c3n2)CC1(C)C (racemic) [Example 165, Racemic-2-(4-acryloyl-3,3-dimethylpiperazin-1-yl)-N-[1-(4-fluorophenyl)-2-hydroxyethyl]-5H-pyrrolo[2,3-b]pyrazine-7-carboxamide] | 10.7 nM | 957 nM
C=CC(=O)N1CCC(Nc2cnc3[nH]cc(C(=O)NCC(C)(C)C)c3n2)CC1C (racemic) [Example 267, Racemic-2-[(1-acryloyl-2-methylpiperidin-4-yl)amino]-N-(2,2-dimethylpropyl)-5H-pyrrolo[2,3-b]pyrazine-7-carboxamide] | 4.99 nM | 802 nM
C=CC(=O)N1CCC(Nc2cnc3[nH]cc(C(=O)N[C@@H]4C[C@H]4C(F)(F)F)c3n2)CC1C (mixture of isomers) [Example 337, Racemic-2-[(1-acryloyl-2-methylpiperidin-4-yl)amino]-N-[(1R,2R)-2-(trifluoromethyl)cyclopropyl]-5H-pyrrolo[2,3-b]pyrazine-7-carboxamide] | 14.4 nM | 1840 nM
C=CC(=O)N1CC[C@H](OC)[C@H](Nc2cnc3[nH]cc(C(=O)N[C@H](C)COC)c3n2)C1 (single isomer, unassigned) [Example 6] | 10.1 nM | 1320 nM
C=CC(=O)N1CCC[C@@H]1COc1cnc2[nH]cc(C(=O)N[C@@H](C)COC)c2n1 (single isomer, unassigned) [Example 9] | 8.86 nM | 1210 nM
C=CC(=O)N1CC[C@@H](COc2cnc3[nH]cc(C(=O)N[C@@H](C)COC)c3n2)C1 (single isomer, unassigned) [Example 12] | 5.28 nM | 766 nM
C=CC(=O)N1CC[C@@H](COc2cnc3[nH]cc(C(=O)N[C@H](C)COC)c3n2)C1 (single isomer, unassigned) [Example 14] | 54.8 nM | 3010 nM
C=CC(=O)N1CC[C@H](COc2cnc3[nH]cc(C(=O)N[C@H](C)COC)c3n2)C1 (single isomer, unassigned) [Example 15] | 31.4 nM | 3280 nM
C=CC(=O)N1CC[C@@H](CNc2cnc3[nH]cc(C(=O)N[C@H](C)COC)c3n2)C1 (single isomer, unassigned) [Example 20] | 5.42 nM | 926 nM
C=CC(=O)N1CC[C@@H](Nc2cnc3[nH]cc(C(=O)NCCC(F)(F)F)c3n2)C[C@H]1C (single isomer, unassigned) [Example 23] | 3.58 nM | 651 nM
C=CC(=O)N1CC[C@@H](N(C)c2cnc3[nH]cc(C(=O)NCC)c3n2)C1 (single isomer, unassigned) [Example 29] | – | 8310 nM
C=CC(=O)N1CC[C@H](N(C)c2cnc3[nH]cc(C(=O)NCC)c3n2)C1 (single isomer, unassigned) [Example 30] | 6.86 nM | 865 nM

The remaining compounds from weak to strong by IC50 [2], led by results:

IC50 [1] | IC50 [2] | Structure (SMILES)
4.69 nM | 633 nM | C=CC(=O)N1CC[C@H](CNc2cnc3[nH]cc(C(=O)N[C@H](C)COC)c3n2)C1 (single isomer, unassigned) [Example 21]
2.77 nM | 632 nM | C=CC(=O)N1CCC(COc2cnc3[nH]cc(C(=O)N[C@@H](C)COC)c3n2)C1 (mixture of isomers) [Example 10, Racemic-2-[(1-acryloylpyrrolidin-3-yl)methoxyl]-N-[(2S)-1-methoxypropan-2-yl]-5H-pyrrolo[2,3-b]pyrazine-7-carboxamide]
5.82 nM | 632 nM | C=CC(=O)N1CCN(c2cnc3[nH]cc(C(=O)NC(CO)c4cccc(F)c4)c3n2)CC1(C)C (racemic) [Example 136, Racemic-2-(4-acryloyl-3,3-dimethylpiperazin-1-yl)-N-[1-(3-fluorophenyl)-2-hydroxyethyl]-5H-pyrrolo[2,3-b]pyrazine-7-carboxamide]
6.77 nM | 621 nM | C=CC(=O)N1CCCC(Nc2cnc3[nH]cc(C(=O)NCC)c3n2)C1 (single isomer, unassigned) [Example 35]
4.68 nM | 590 nM | C=CC(=O)N1CCN(c2cnc3[nH]cc(C(=O)NC(CO)c4ccccc4F)c3n2)CC1(C)C (racemic) [Example 154, Racemic-2-(4-acryloyl-3,3-dimethylpiperazin-1-yl)-N-[1-(2-fluorophenyl)-2-hydroxyethyl]-5H-pyrrolo[2,3-b]pyrazine-7-carboxamide]
3.54 nM | 526 nM | C=CC(=O)N1CCC(Oc2cnc3[nH]cc(C(=O)NCC4(O)CCCC[C@@H]4F)c3n2)CC1 (mixture of isomers) [Example 224, Racemic-2-[(1-acryloylpiperidin-4-yl)oxy]-N-{[(2S)-2-fluoro-1-hydroxycyclohexyl]methyl}-5H-pyrrolo[2,3-b]pyrazine-7-carboxamide]
3.32 nM | 430 nM | C=CC(=O)N1CCN(c2cnc3[nH]cc(C(=O)NC4COCc5ccccc54)c3n2)CC1(C)C (racemic) [Example 144, Racemic-2-(4-acryloyl-3,3-dimethylpiperazin-1-yl)-N-(3,4-dihydro-1H-isochromen-4-yl)-5H-pyrrolo[2,3-b]pyrazine-7-carboxamide]
2.12 nM | 430 nM | C=CC(=O)N1CCC(Oc2cnc3[nH]cc(C(=O)NCC4(O)CC[C@@H](C)C4)c3n2)CC1 (mixture of isomers) [Example 226]
3.62 nM | 411 nM | C=CC(=O)N1CCC(Oc2cnc3[nH]cc(C(=O)NCC4(O)CCC(C)C4)c3n2)CC1 (racemic) [Example 201, Racemic-2-[(1-acryloylpiperidin-4-yl)oxy]-N-[(1-hydroxy-3-methylcyclopentyl)methyl]-5H-pyrrolo[2,3-b]pyrazine-7-carboxamide]
1.29 nM | 134 nM | C=CC(=O)N1CCC(Nc2cnc3[nH]cc(C(=O)NCCC(F)(F)F)c3n2)CC1C (racemic) [Example 22, Cis-racemic 2-{[1-acryloyl-2-methylpiperidin-4-yl]amino}-N-(3,3,3-trifluoropropyl)-5H-pyrrolo[2,3-b]pyrazine-7-carboxamide]
0.408 nM | 46 nM | C=CC(=O)N1CC[C@@H](OC)[C@@H](Nc2cnc3[nH]cc(C(=O)N[C@H](C)COC)c3n2)C1 (single isomer, unassigned) [Example 5]
